Experimental data published in patent publication EP1013272A1, “Manipulation of the activity of a nitric oxide radical production pathway for the treatment of diseases associated with the presence of oxygen free radicals” (Biomedical Primate Research Centre (BPRC), priority 1998, dated 2000).

Key:
[1] = system: Con A-activated splenocytes; assay: ELISPOT enumeration of IFN-γ and IL-4 producing cells in Con A-stimulated spleen cell cultures with culture supplements; format: cell-based, rat
Method: The aseptically removed spleen was gently crushed with the blunt end of a 5-ml syringe plunger and passaged through a fine mesh nylon screen. Erythrocytes were hemolysed by adding cold sterile water for 20 sec. to cell pellets followed by the addition of half the volume of 2.7% saline. The number of cells was determined by use of Türk's solution and cell viability by means of trypan blue exclusion. Cell suspensions in which the viability was less than 85% were excluded from the studies. Splenocytes were washed twice with CM5, adjusted to 4 x 10^6 cells/ml, transferred to a 24-well culture plate (1.0 ml/well) and stimulated with Con A (5 µg/ml) in the presence or absence of various supplements (as indicated in the text) for 40 h at 37°C in a humidified atmosphere containing 5% CO2. Thereafter, non-adherent cells were collected and subjected to ELISPOT analyses as described below.
The ELISPOT assay for detecting single cytokine secreting cells has been detailed previously (17). Briefly, the wells of PVC microplates were coated with monoclonal antibodies specific for rat IFN-γ or rat IL-4. After washing and postcoating, 100 µl suspensions of Con A-activated splenocytes were pipetted into the wells. The cells were allowed the produce cytokines for either 4 h (IFN-γ pc) or 16 h (IL-4 pc). Thereafter, cells were lysed for 10 minutes with ice-cold distilled water. Subsequently, the wells were thoroughly washed with PBS containing 0.05% Tween-20. Spots were detected by the sequential incubation of biotinylated rabbit anti-cytokine antibodies and goat anti-biotin antibodies conjugated to alkaline phosphatase (AP). The AP substrate 5-bromo-4-chloro-3-indolyl phosphate was used to produce blue zones ('spots') that visualised the positions of the individual spot-forming cells (SFC). SFC were enumerated by image analysis using a stereo microscope coupled to a colour video camera and Micro Image software from Olympus Optical Co. The frequency of spontaneously occurring SFC was always less than 1% of the mitogen-induced frequency.

[2] = GSH-mediated decomposition of GSNO in phosphate buffer (absorbance 335 nm, nitrite, nitrate, ammonia); format: physicochemical
Method: For each experiment GSNO was prepared freshly. […] Three independent experiments were performed with similar results. […] Nitrite levels were measured by the colorimetric Griess reaction. Two independent experiments were performed which produced similar results.
Nitrate was not detected in the solutions.

peritoneal macrophages [3] = assay: H2O2 production by purified peritoneal macrophages (homovanillic acid/HRP); format: cell-based, rat; conditions: stimulus PMA 5 ng/ml
Method: The spontaneous or PMA/IFN-γ-triggered release of H2O2 was determined by the same method as described for splenocytes. Macrophage monolayers were incubated for 24 h in CM10 with or without rat IFN-γ (1000 U/ml). Subsequently, cells were washed twice with prewarmed PBS and incubated for 1 h in 1.0 ml PBS containing […] CaCl2, […] MgCl2, […] D-glucose, 1.0 unit HRP, […] homovanillic acid and 5 ng/ml PMA. After termination of the reaction, the amount of oxidised homovanillic acid in the supernatant was determined spectrofluorometrically. The cellular proteins in the wells were solubilized by adding 250 µl 0.5% (w/v) sodium dodecylsulphate in 0.2 N NaOH. The amount of solubilized protein was determined by a modification of the Lowry method (19). The results are expressed as nmoles H2O2 per mg of protein.
(§1) Peritoneal cells were collected from rats by lavage with 10 ml ice-cold saline containing 50 units/ml heparin. Cells were washed twice with CM10 and resuspended in CM10 to a concentration of 2 x 10^6 cells/ml. Total cell counts were obtained with a Bürker hemocytometer and differential counts performed on centrifuge preparations fixed in absolute methanol and stained with Giemsa stain. The peritoneal cell suspension of Lewis rats consisted of 70 ± 3% macrophages, 13 ± 1% lymphocytes, 14 ± 1% granulocytes and 3 ± 1% mast cells (n = 3). […]

peritoneal macrophages [4] = assay: Superoxide anion production by purified peritoneal macrophages (SOD-inhibitable ferricytochrome C reduction); format: cell-based, rat; conditions: stimulus PMA 5 ng/ml
Method: as §1, with “3). The peritoneal cells of BN rats were composed of 61 ± 2% macrophages, 12 ± 1% lymphocytes, 26 ± 2% granulocytes and 2 ± 1% mast cells (n = 3). Cells were fractionated by culturing them in the wells of a 24-well tissue culture plate at a concentration of 2 x 10^6 cells/ml in CM10.” for “3).”
The pMØ monolayers were incubated for 20 h at 37°C in CM10 and subsequently washed (twice) with Hanks' balanced salt solution (HBSS) without phenol red. […] Each test was run in duplicate and the absorption increase at 550 nm was measured using a Beckmann DU-5 spectrophotometer. ^·O2^- release by splenocytes was determined after Con A activation of 4 x 10^6 cells for 20 h. […]

[5] = BN normal rats, GSH 2 mM, Con A
[6] = Lewis normal rats, GSH 2 mM, Con A
[7] = excess reducing agent added to cultures, splenocytes from BN or Lewis rats
[8] = normal Lewis rats, GSH 2 mM, no XO/HY, Con A 5 µg/ml (Table 5)
[9] = BN naive rats, NMMA 180 µM added after 20 h Con A + 2 mM GSH, further 20 h
[10] = BN naive rats, NMMA 360 µM added after 20 h Con A + 2 mM GSH, further 20 h
[11] = BN, HgCl2-exposed rats, NMMA 180 µM added after 20 h Con A + 2 mM GSH, further 20 h
[12] = BN, HgCl2-exposed rats, NMMA 360 µM added after 20 h Con A + 2 mM GSH, further 20 h
[13] = Lewis naive rats, NMMA 180 µM added after 20 h Con A + 2 mM GSH, further 20 h
[14] = Lewis naive rats, NMMA 360 µM added after 20 h Con A + 2 mM GSH, further 20 h
[15] = Lewis, HgCl2-exposed rats, NMMA 180 µM added after 20 h Con A + 2 mM GSH, further 20 h
[16] = Lewis, HgCl2-exposed rats, NMMA 360 µM added after 20 h Con A + 2 mM GSH, further 20 h

N[C@@H](CCC(=O)N[C@@H](CS)C(=O)NCC(=O)O)C(=O)O [GSH, Glutathione]
IFN-γ pc per 1x10^4 MNC [1, 5]: 98 ± 11 per 1 x 10^4 MNC
IL-4 pc per 2x10^5 MNC [1, 5]: 60 ± 5 per 2 x 10^5 MNC
ratio IFN-γ pc/IL-4 pc [1, 5]: 34
IFN-γ pc per 1x10^4 MNC [1, 6]: 139 ± 14 per 1 x 10^4 MNC
IL-4 pc per 2x10^5 MNC [1, 6]: 11 ± 3 per 2 x 10^5 MNC
ratio IFN-γ pc/IL-4 pc [1, 6]: 253
enhancement of the ratio of IFN-γ pc/IL-4 pc [1, 7]: approximately 10 fold
IFN-γ pc per 1x10^4 MNC [1, 8]: 103 ± 23 per 1 x 10^4 MNC
IL-4 pc per 2x10^5 MNC [1, 8]: 6 ± 1 per 2 x 10^5 MNC
ratio IFN-γ pc/IL-4 pc [1, 8]: 343

CNC(=N)NCCC[C@H](N)C(=O)O [NMMA, N^G-monomethyl-L-arginine]
IFN-γ pc per 1x10^4 MNC [1, 9]: 209 ± 19 per 1x10^4 MNC
IL-4 pc per 2x10^5 MNC [1, 9]: 32 ± 6 per 2x10^5 MNC
ratio pc IFN-γ/IL-4 [1, 9]: 131
IFN-γ pc per 1x10^4 MNC [1, 10]: 251 ± 14 per 1x10^4 MNC
IL-4 pc per 2x10^5 MNC [1, 10]: 30 ± 2 per 2x10^5 MNC
ratio pc IFN-γ/IL-4 [1, 10]: 167
IFN-γ pc per 1x10^4 MNC [1, 11]: 71 ± 11 per 1x10^4 MNC
IL-4 pc per 2x10^5 MNC [1, 11]: 54 ± 11 per 2x10^5 MNC
ratio pc IFN-γ/IL-4 [1, 11]: 26
IFN-γ pc per 1x10^4 MNC [1, 12]: 92 ± 17 per 1x10^4 MNC
IL-4 pc per 2x10^5 MNC [1, 12]: 20 ± 5 per 2x10^5 MNC
ratio pc IFN-γ/IL-4 [1, 12]: 92
enhancement of the ratio of IFN-γ pc/IL-4 pc ([1]; HgCl2-exposed rats, BN splenocyte cultures): 11 fold
enhancement of the ratio of IFN-γ pc/IL-4 pc ([1]; HgCl2-exposed rats, Lewis splenocyte cultures): 2 fold
IFN-γ pc per 1x10^4 MNC [1, 13]: 175 ± 9 per 1x10^4 MNC
IL-4 pc per 2x10^5 MNC [1, 13]: 14 ± 7 per 2x10^5 MNC
ratio pc IFN-γ/IL-4 [1, 13]: 250
IFN-γ pc per 1x10^4 MNC [1, 14]: 178 ± 11 per 1x10^4 MNC
IL-4 pc per 2x10^5 MNC [1, 14]: 13 ± 2 per 2x10^5 MNC
ratio pc IFN-γ/IL-4 [1, 14]: 274
IFN-γ pc per 1x10^4 MNC [1, 15]: 112 ± 5 per 1x10^4 MNC
IL-4 pc per 2x10^5 MNC [1, 15]: 10 ± 5 per 2x10^5 MNC
ratio pc IFN-γ/IL-4 [1, 15]: 224
IFN-γ pc per 1x10^4 MNC [1, 16]: 135 ± 10 per 1x10^4 MNC
IL-4 pc per 2x10^5 MNC [1, 16]: 8 ± 2 per 2x10^5 MNC
ratio pc IFN-γ/IL-4 [1, 16]: 338
increase in the ratio of IFN-γ pc/IL-4 pc ([1]; splenocyte cultures of naive BN rats): 4 fold

OO [H2O2, hydrogen peroxide]
frequencies of IFN-γ pc and IL-4 pc ([1]; H2O2 up to 100 µM added to cultures (not shown)): did not affect

N[C@@H](CCC(=O)N[C@@H](CSN=O)C(=O)NCC(=O)O)C(=O)O [GSNO, S-nitrosoglutathione]
Nitrate in the solutions ([2]; GSH-triggered decomposition of GSNO): not detected
decomposition of GSNO ([2]; absence of GSH, 0.1 mM, 42 h, room temperature (not shown)): no significant decomposition
major decomposition product ([2]; molar ratios exceeding 20 (Fig. 5)): NH3
time in which decomposition was almost completed ([2]; ratio of GSH:GSNO of 320 (fig. 3)): ~5 h

N[C@@H](CS)C(=O)O [cysteine]
enhancement of the ratio of IFN-γ pc/IL-4 pc [1, 7]: approximately 10 fold

CCCCCCCCCCCCCC(=O)O[C@@H]1[C@@H](C)[C@@]2(O)[C@@H](C=C(CO)C[C@]3(O)C(=O)C(C)=C[C@@H]23)[C@@H]2C(C)(C)[C@]12OC(C)=O [PMA, phorbol 12-myristate 13-acetate]
ROI H2O2 (nmol/mg protein) (peritoneal macrophages [3]; BN normal rats): 8.7 nmol/mg protein
ROI H2O2 (nmol/mg protein) (peritoneal macrophages [3]; Lewis normal rats): 1.9 nmol/mg protein
ROI ^·O2^- (nmol/mg protein) (peritoneal macrophages [4]; BN normal rats): 388.2 nmol/mg protein
ROI ^·O2^- (nmol/mg protein) (peritoneal macrophages [4]; Lewis normal rats): 62.1 nmol/mg protein
